For six compounds, EC50 and CC50 results are on record in US12404289B2 (Gilead Sciences, Inc., priority 2020, dated 2025).

Where two headings read alike, the source gives them in different places.

What all share (assay type): cell-based
Data set [1] has as its system Respiratory syncytial virus (RSV) strain A2. Briefly: RSV antiviral assay (HEp-2, 96 well). The settings on record: Table 1.
Data set [2] has as its system SARS-CoV-2. Briefly: SARS-CoV-2 antiviral assay (A549-hACE2, Nano luciferase). Conditions: A549-hACE2 cells, SARS-CoV2-Nano, MOI 0.025, 48 h.
Data set [3] can be described thus: CC50 assay (cytopathology in HEp-2 cells). The settings on record: human, HEp-2 cells, 4 days, CellTiter-Glo; Table 1; read-out: RSV CC50. The protocol: (§1) The cytopathology of compounds in HEp-2 cells is determined in the following manner. HEp-2 cells are suspended in DMEM+GlutaMAX (supplemented with 10% FBS and 1% Penicillin/Streptomycin) and seeded into 96 well plates (3×10^3/well). After a 4-hour incubation at 37° C.+5% CO2, three-fold serial dilutions of compounds are added to each well using an HP D300e digital dispenser. The cells are then incubated for 4 days at 37° C. and 5% CO2. The final volume in each well is 200 μL. Untreated wells are included as controls for 100% cell viability, while compounds treated with 5 uM puromycin are included as controls for 0% viability. Following the incubation, 100 μL of culture supernatant is removed from each well and replaced with 100 μL of CellTiter-Glo reagent (Promega, Madison, WI, Cat #G7573). The plates are then rocked for 2 minutes followed by a 10-minute incubation at 25° C. Compound-induced cytopathic effect is then assessed by measuring luminescence signal using and Envision plate reader. Values are normalized to the untreated DMSO and puromycin-treated controls (as 100% and 0% viability, respectively) and data is fit using non-linear regression analysis using XLfit4. The CC50 value for each compound is then determined as the concentration reducing cell viability by 50%.

Data set [4] relates to Respiratory syncytial virus (RSV) strain A2. Briefly: Hep-2 RSV2 384-well assay (EC50-HEP2-384). The settings on record: HEp-2 cells, RSV A2, MOI=4, 4 days, Table 1.
For data set [5], the system named is Respiratory syncytial virus recombinant with luciferase (RSV-Luc5). The data set can be described thus: microbe, parasite or virus in culture. The settings on record: human respiratory syncytial virus, HEp-2, 72 h, read-out: EC50 RSVFluc-Hep2 384, HEp-2 cells, RSV-Luc5, MOI=0.5, 3 days, 384 well, One-Glo; Table 1.
The test system of data set [6] is Recombinant respiratory syncytial virus expressing the firefly luciferase protein (RSV-Fluc). Briefly: microbe, parasite or virus in culture. Conditions: Table 4.
Data set [7] has as its system HEp-2 cells. The data set can be described thus: CC50 assay (cytopathology in HEp-2 cells). The settings on record: HEp-2 cells, 4 days, CellTiter-Glo; Table 1; read-out: RSV CC50. The protocol: as §1
(In general: ATP-based viability assays read luminescence as a measure of living cells.)

The mark [8] stands for this setting: human respiratory syncytial virus, HEp-2, 96 h, read-out: EC50-RSV-HEP-2-96, HEp-2 cells, RSV A2, MOI=4, 4 days, 96 well, CellTiter-Glo.
Where [9] appears, read: Severe acute respiratory syndrome coronavirus 2, 48 h, Table 1, read-out: SARS-CoV-2 EC50.
Where [10] appears, read: Severe acute respiratory syndrome coronavirus 2, 48 h, Table 4, read-out: EC50 SARS CoV2.
The mark [11] stands for this setting: human respiratory syncytial virus, HEp-2, 96 h.
Where [12] appears, read: human respiratory syncytial virus, NHBE, 72 h, read-out: EC50 RSVFluc NHBE 96, NHBE cells, RSV-Fluc, MOI of 0.1, three days, 96 well.
Setting [13] is: read-out: EC50 RSVFluc NHBE 96, NHBE cells, RSV-Fluc, MOI of 0.1, three days, 96 well.

For `CCC(CC)COC(=O)[C@H](C)NP(=O)(OC[C@H]1O[C@@](C#N)(c2ccc3c(N)ncnn23)[C@H](O)[C@@H]1O)Oc1ccc(C(C)(C)C)cc1` (mixture of isomers) [Example 13, 2-ethylbutyl (2S)-2-[[[(2R,5R)-5-(4-aminopyrrolo[2,1-f][1,2,4]triazin-7-yl)-5-cyano-3,4-dihydroxy-tetrahydrofuran-2-yl]methoxy-(4-tert-butylphenoxy)phosphoryl]amino]propanoate], the EC50 came to 34.5 nM in data set [1] (setting [8]); 88.9 nM in data set [2] (setting [9]); 319 nM in data set [2] (setting [10]); 58.8 nM in data set [4] (setting [11]); 20.1 nM in data set [5]; 2.92 nM in data set [6] (setting [12]). The CC50 at 4 days in data set [3] worked out at 3800 nM.

Turning to `CCC(CC)COC(=O)[C@H](C)NP(=O)(OC[C@H]1O[C@@](C#N)(c2ccc3c(N)ncnn23)[C@H](O)[C@@H]1O)Oc1cc(C)ccc1C(C)C` (single isomer, unassigned) [Example 26a], the EC50 in data set [1] (setting [8]) was 1160 nM. For the same compound, in data set [7], the CC50 is greater than 45000 nM.

Take `CCC(CC)COC(=O)[C@H](C)NP(=O)(OC[C@H]1O[C@@](C#N)(c2ccc3c(N)ncnn23)[C@H](O)[C@@H]1O)Oc1cc(C)ccc1C(C)C` (single isomer, unassigned) [Example 26b]: the concentration for a half-maximal effect (EC50) in data set [1] (read-out: EC50-RSV-HEP-2-96, HEp-2 cells, RSV A2, MOI=4, 4 days, 96 well, CellTiter-Glo) was 603 nM. Further, in data set [7], the half-maximal cytotoxic concentration (CC50) stood at 2400 nM.

On to `CC(C)C(=O)O[C@H]1[C@@H](OC(=O)C(C)C)[C@](C#N)(c2ccc3c(N)ncnn23)O[C@@H]1COP(=O)(N[C@@H](C)C(=O)OC1CCC1)Oc1ccccc1` (stereo partly drawn) [Example 21, (2R,3R,4R,5R)-2-(4-Aminopyrrolo[2,1-f][1,2,4]triazin-7-yl)-2-cyano-5-((((((S)-1-cyclobutoxy-1-oxopropan-2-yl)amino)(phenoxy)phosphoryl)oxy)methyl) tetrahydrofuran-3,4-diyl bis(2-methylpropanoate)], for which the EC50 in data set [1] (setting [8]) turned out to be 19.8 nM; in data set [2] (setting [9]), 123 nM; in data set [2] (setting [10]), 234 nM; in data set [4] it was 58.8 nM; in data set [5], 29.4 nM; in data set [6] (setting [13]) it was 5.36 nM. The CC50 at 4 days in data set [3] was determined as 3110 nM.

For the compound `C[C@H](NP(=O)(OC[C@H]1O[C@@](C#N)(c2ccc3c(N)ncnn23)[C@H](O)[C@@H]1O)Oc1ccc(C(C)(C)C)cc1)C(=O)OC1CC2(CCC2)C1` (stereo partly drawn) [Example 29, Spiro[3.3]heptan-2-yl (2S)-2-[[[(2R,3S,4R,5R)-5-(4-aminopyrrolo[2,1-f][1,2,4]triazin-7-yl)-5-cyano-3,4-dihydroxy-tetrahydrofuran-2-yl]methoxy-(4-tert-butylphenoxy)phosphoryl]amino]propanoate], the EC50 was 10.7 nM in data set [1] (setting [8]); 123 nM in data set [2] (Table 4, read-out: EC50 SARS CoV2); 65.1 nM in data set [2] (setting [9]); 62.2 nM in data set [4] (setting [11]); 36.9 nM in data set [5]; 3.93 nM in data set [6] (setting [12]). Further, the CC50 at 4 days in data set [3] was determined as 2650 nM.

In the case of `CC(=O)O[C@H]1[C@@H](OC(C)=O)[C@](C#N)(c2ccc3c(N)ncnn23)O[C@@H]1COP(=O)(N[C@@H](C)C(=O)OC1CC2(CCC2)C1)Oc1ccc(C(C)(C)C)cc1` (stereo partly drawn) [Example 30, Spiro[3.3]heptan-2-yl (2S)-2-[[(4-tert-butylphenoxy)-[[(2R,3R,4R,5R)-3,4-diacetoxy-5-(4-aminopyrrolo[2,1-f][1,2,4]triazin-7-yl)-5-cyano-tetrahydrofuran-2-yl]methoxy]phosphoryl]amino]propanoate], the EC50 in data set [1] (setting [8]) turned out to be 7.3 nM; in data set [2] (setting [10]), 202 nM; in data set [4] (setting [11]), 39.7 nM; in data set [5] it was 27.1 nM; in data set [6] (setting [13]) it was 4.49 nM. For the same compound, the CC50 at 4 days in data set [3] came to 2310 nM.

One may read the EC50 as the concentration at which the effect is half-maximal. By CC50 is commonly meant the concentration that lowers cell viability or growth by half.
